# Test results published in PubChem BioAssay AID504322 (Emory University Molecular Libraries Screening Center, 2011).
# Calls of active or inactive are those of the source. How the calls were made is not given here.
# System: CHOP reporter cell assay, percent of control
# Test: CHOP reporter inhibitor potency, dose response, cell-based (AID 504322);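 further: CHO cells carrying a CHOP reporter stimulated with tunicamycin to induce ER stress; potency is for inhibition of the stress-induced reporter signal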
row,SMILES,IC50
1,Cc1ccc(C(C)C)c(OCC(=O)N/N=C/C2CCCCC2)c1,9.65 µM (inactive)
2,CCCCn1c(NS(=O)(=O)c2ccccc2)c(S(=O)(=O)c2ccc(C)cc2)c2nc3ccccc3nc21,9.67 µM (inactive)
3,Cc1ccc(N=C2SC(C(=O)Nc3ccc(OC(F)(F)F)cc3)C(N)=C2C(=O)Nc2c(C)cc(C)cc2C)cc1 (configuration not stated),> 10 µM (inactive)
4,CCC(C)[C@@H](NC(=O)OC(C)(C)C)c1nnc(S(=O)(=O)Cc2cccc(C)c2)o1 (some centres not stated),4.78 µM
5,Cc1ccc(/C=C2\SC(=S)N(CCCC(=O)Nc3ccccn3)C2=O)cc1,0.42 µM
6,COc1cc(-c2nc3ccc4ccccc4c3c3c2CCC3)cc(OC)c1O,> 10 µM (inactive)
7,COc1cc(OC)c(OC)cc1/C=N/Nc1ncnc2c1[nH]c1ccccc12,9.19 µM (inactive)
8,Clc1ccc2c(N/N=C/c3ccc(Br)cc3)ccnc2c1,9.92 µM (inactive)
9,Nc1nnnn1/N=C/C(Br)=C/c1ccccc1,9.72 µM (inactive)
10,Cc1cc(/C=N/n2cnnc2)c(C)n1-c1ccc(OCc2ccccc2F)cc1,4.88 µM
11,O=C1CC(c2ccccc2Cl)CC(O)=C1C=Nc1ccccc1 (configuration not stated),6.54 µM (inactive)
12,O=C(Cc1ccccc1)NC(=S)Nc1cccc(C(F)(F)F)c1,3.61 µM (inactive)
13,NC(=O)CC(NC(=O)Cc1cccc2ccccc12)c1ccc(NCCOc2ccccc2)c([N+](=O)[O-])c1 (configuration not stated),8.33 µM (inactive)
14,CN(C)c1ccc(-c2nc3ccccn3c2/N=C/c2ccc(Br)cc2)cc1,7.04 µM
15,CNC(=O)NC(=O)C(C)OC(=O)c1oc2ccccc2c1CSc1ccc(Cl)cc1 (configuration not stated),> 10 µM (inactive)
16,CCOc1cc(/C=N/NC(=O)Cc2ccc(C(F)(F)F)cc2[N+](=O)[O-])c(Br)cc1OC,4.6 µM
17,O=C(OCC(F)(F)F)c1cccc(COc2ccc3ccccc3c2)c1,1.26 µM
18,CCn1c(C)nc2cc(-c3nc4n(n3)Cc3ccccc3-4)ccc21,< 0.16 µM (inactive)
19,COc1ccc(/C=C2/C(=O)ON=C2c2ccccc2)cc1OC,> 10 µM (inactive)
20,O=C(C1=C(c2ccccc2)C(=O)c2ccccc2C1=O)c1ccccc1,4.73 µM
21,CC(=O)OCC1O[C@@H](O[C@@H]2C[C@H]3C(C)(C)[C@H](OC(C)=O)CC[C@]3(C)[C@H]3CC[C@]45C[C@]4(CC[C@H]5[C@@H](C)C[C@@H](O)[C@H](O)C(C)(C)O)[C@@]32C)[C@H](O)[C@@H](O)[C@@H]1O (some centres not stated),5.96 µM (inactive)
22,CC(C)NC(=O)c1ccccc1NC(=O)/C=C/c1cccc([N+](=O)[O-])c1,5.83 µM (inactive)
23,CCCC(=O)OCCNc1cc(Sc2nc3ccccc3[nH]2)c2nonc2c1[N+](=O)[O-],5.35 µM (inactive)

row,SMILES,IC50
1,O=C(NCc1ccccc1Cl)c1ccc(S(=O)(=O)Nc2cccc(C(F)(F)F)c2)cc1,> 10 µM (inactive)
2,CC[C@@H]1CC=C[C@H]2[C@H]1C(=O)N(Cc1ccccc1)[C@H]2c1ccoc1,9.62 µM (inactive)
3,CC(C)(C)C(=O)Nc1ccc(-c2nc3ccccc3c(=O)o2)cc1,0.7 µM (inactive)
4,Nc1c(C(=O)Nc2ccc(S(=O)(=O)N3CCCC3)cc2)sc2nc3ccc(OC(F)(F)F)cc3cc12,6.79 µM (inactive)
5,COC(=O)c1ccc2c(=O)n(CCCCCC(=O)N3CCN(c4ccccc4)CC3)c(=O)[nH]c2c1,9.65 µM (inactive)
6,CC1C/C(=C/c2ccccn2)C(=O)/C(=C/c2ccccn2)C1 (configuration not stated),2.49 µM
7,COC(=O)C(O)(c1ccc(NC(=S)NC(=O)c2ccc(Cl)cc2Cl)c(C)c1)C(F)(F)F (configuration not stated),9.05 µM (inactive)
8,CCCOc1ccc(Cc2c(Cl)nc(SC)nc2NC)cc1,8.18 µM (inactive)
9,O=C(NC1CCCCC1)C(c1ccc(F)cc1)N(Cc1ccccc1)C(=O)CN1C(=O)c2ccccc2S1(=O)=O (configuration not stated),4.85 µM
10,C/C=C/Cn1c(SCCCc2ccccc2)nc2c1c(=O)[nH]c(=O)n2C,> 10 µM (inactive)
11,Cc1ccc(C)c(OCc2ccc(C(=O)N3N=C(C(F)F)CC3(O)C(F)F)o2)c1 (configuration not stated),2.89 µM
12,CCSc1nc2ccccc2n1C(=O)/C=C\c1ccc(OC)c(OC)c1,4.06 µM
13,CCSCCc1nnc(NC(=O)Nc2cccc(C(F)(F)F)c2)s1,6.82 µM (inactive)
14,CC(C)(C)c1cc(S(=O)(=O)CCc2ccccn2)cc(C(C)(C)C)c1F,3.6 µM
15,FC(F)(F)c1cccc(CN2CCC(c3cc(-c4cccs4)n[nH]3)CC2)c1,9.4 µM (inactive)
16,Cc1cc(/C=N/n2cnnc2)c(C)n1-c1ccc(OCc2ccc(F)cc2)cc1,0.67 µM (inactive)
17,Cc1cccc(OCc2n(CC(=O)OC3CC(C)CCC3C(C)C)c3ccccc3[n+]2C)c1 (configuration not stated),> 10 µM (inactive)
18,CCOC(=O)CN1C(c2ccc(O)cc2)Nc2ccc(Br)cc2C1c1ccccc1 (configuration not stated),9.53 µM (inactive)
19,CC(C)Cn1c(=O)[nH]c(=O)c2c(C(F)(F)F)cc(-c3ccccc3)nc21,> 10 µM (inactive)
20,CCc1ccc(OCC(=O)NC(NC(=S)Nc2ccc(C)cc2C)C(Cl)(Cl)Cl)cc1 (configuration not stated),8.46 µM (inactive)
21,CC(C)Cn1c(N)c(C(=O)COC(=O)CC23CC4CC(CC(C4)C2)C3)c(=O)n(C)c1=O,0.82 µM
22,CCOc1ccc(-c2nc(CSCC(=O)NCc3ccco3)c(C)o2)cc1,< 0.16 µM
23,CC(=O)OCCCNc1cc(Sc2ccc(Cl)cc2)c2nonc2c1[N+](=O)[O-],> 10 µM (inactive)

row,SMILES,IC50
1,Cn1ncc2c(O/N=C(\N)c3ccc(C(C)(C)C)cc3)ncnc21,4.27 µM
2,COc1cc(/C=C(/C#N)c2nc3ccccc3[nH]2)ccc1OCC(=O)Nc1ccccc1C(C)C,4.54 µM
3,COc1ccc(-c2nn(-c3ccccc3)cc2/C=N/NC(=O)c2ccc(Br)o2)cc1,9.29 µM (inactive)
4,Cc1ccc(S(=O)(=O)Nc2ccc(NC(=O)Nc3cccc(C(F)(F)F)c3)cc2)cc1,9.48 µM (inactive)
5,O=C1C(Cl)=C(Nc2ccccc2)C(=O)c2ccccc21,> 10 µM (inactive)
6,CCc1ccc(-c2nc(CSCC(=O)NCc3ccco3)c(C)o2)cc1,< 0.16 µM
7,COc1cc(CNCc2ccccn2)ccc1OCc1ccc(Cl)cc1Cl,6.74 µM (inactive)
8,COc1ccc(-c2[nH]ncc2/C=C(/C#N)C(=O)NC2CCCCCC2)cc1,9.23 µM (inactive)
9,Cc1ccc2nc(NC(=O)CSCC(=O)OCC(=O)c3ccc(Br)cc3)sc2c1,5.35 µM (inactive)
10,C(=N\Nc1ncnc2sc3c(c12)CCC3)/c1cccs1,8.89 µM (inactive)
11,Cc1cc(Cl)n2c(nc3cc(F)c(F)cc32)c1C#N,> 10 µM (inactive)
12,CC1=CC(=O)C=C(C)C1=NOS(=O)(=O)c1ccccc1,5.48 µM (inactive)
13,Fc1ccc(Nc2nc(NCc3ccco3)c3ccccc3n2)cc1,> 10 µM (inactive)
14,Cc1cccc(NC(=O)/C(C#N)=C/c2cn(CC(=O)NCc3ccco3)c3ccccc23)c1C,> 10 µM (inactive)
15,CC(C)(C)c1ccc(C(=O)NC(=S)NNC(=O)c2cccs2)cc1,6.3 µM (inactive)
16,CC(C)c1nnc(N2C(=O)c3oc4ccccc4c(=O)c3C2c2ccco2)s1 (configuration not stated),> 10 µM (inactive)
17,Cc1ccc(Cl)cc1NC1=C/C(=N\S(=O)(=O)c2cccs2)c2ccccc2C1=O,3.94 µM
18,COc1ccc(-c2cc(C3CCN(Cc4cccc(C(F)(F)F)c4)CC3)[nH]n2)cc1,4.11 µM (inactive)
19,O=C(Nc1cc(N2CCOCC2)ncn1)NC1(C(F)(F)F)Oc2ccc(Cl)cc2O1 (configuration not stated),> 10 µM (inactive)
20,CCCCCCCCCCCCCCCCn1cc[n+](C)c1,0.86 µM (inactive)
21,Cc1ccc(-c2cc3c(nn2)-c2ccccc2C3=O)cc1,6.03 µM (inactive)
22,Fc1c(F)c(C(F)(F)F)c(F)c(F)c1N/N=C\c1cccs1,4.78 µM
23,O=C(Nc1cc(Cl)ccc1O)c1cc2n(n1)C(C(F)(F)F)CC(c1ccc3c(c1)OCO3)N2 (configuration not stated),1.97 µM

row,SMILES,IC50
1,Cc1nc(SCC(=O)Nc2ccc(F)cc2)c(C#N)c(C)c1CC(=O)c1ccc(Br)cc1,> 10 µM (inactive)
2,CC(C)Cn1c(N)c(C(=O)COC(=O)C2CCCCC2)c(=O)n(C)c1=O,> 10 µM (inactive)
3,O=C(Nc1cccc(-c2nc3ncccc3o2)c1)c1sc2ccccc2c1Cl,2.47 µM
4,NC(=O)c1cc(-c2ccccc2)nc(N2CCCCCC2)n1,9.62 µM (inactive)
5,Cc1ccc(-c2nnc(-c3ccc(NC(=O)Cc4cccs4)cc3)o2)cc1,8.41 µM (inactive)
6,C[C@H](NC(=O)c1nc[nH]c1C(=O)N[C@@H](Cc1ccccc1)C(=O)OC(C)(C)C)C(=O)OC(C)(C)C,5.25 µM (inactive)
7,Cc1cc(C)n(-c2nc(Nc3ccccc3C(F)(F)F)nc(-n3nc(C)cc3C)n2)n1,3.93 µM (inactive)
8,Cc1ccc2[nH]c3c(c2c1)CN(C(=O)CN1CCN(c2cccc(C)c2C)CC1)CC3,8.33 µM (inactive)
9,O=C1C(C2=NC(c3ccccn3)C3C(=O)N(c4ccc(Cl)cc4Cl)C(=O)C23)=C(O)c2ccccc21 (configuration not stated),7.17 µM (inactive)
10,CC(C)Oc1ccc(CNC(=O)CC(c2ccccc2)c2cc(Cl)ccc2O)cc1 (configuration not stated),9.59 µM (inactive)
11,CCN(CC)S(=O)(=O)c1cccc(NC(=O)Nc2cccc(C(F)(F)F)c2)c1,8.55 µM (inactive)
12,COc1ccc([C@H]2Oc3cc(O)cc(O)c3C(=O)C2[C@@H]2C(=O)c3c(O)cc(O)cc3O[C@@H]2c2ccc(OC)cc2)cc1 (some centres not stated),> 10 µM (inactive)
13,O=C(CCCOc1ccc(Cl)cc1Cl)N/N=C\C1CCCCC1,5.03 µM (inactive)
14,CC(C)C[C@H](NC(=O)OC(C)(C)C)C(=O)N/N=C/C1=Cc2ccccc2OC1C (some centres not stated),2.31 µM
15,COc1ccc(-c2nc(-c3ccc(NC(=O)c4ccc(Br)o4)cc3)no2)cc1OC,> 10 µM (inactive)
16,O=S1(=O)C=C(Sc2nc3cc(Cl)ccc3o2)c2ccccc21,2.91 µM
17,NC(=O)CC(NC(=O)Cc1cccc2ccccc12)c1ccc(NCc2ccc(F)cc2)c([N+](=O)[O-])c1 (configuration not stated),> 10 µM (inactive)
18,COC(=O)c1ccc2c(c1)C(C)(C)C(/C=C/c1ccc(OC)c(OC)c1OC)=[N+]2C,9.48 µM (inactive)
19,CCCNC(=O)c1nnsc1S(=O)(=O)c1ccc(Cl)cc1,2.02 µM (inactive)
20,CN(C)c1ccc(C(CNS(=O)(=O)c2ccc(F)c(F)c2)c2c[nH]c3ccccc23)cc1 (configuration not stated),6.39 µM (inactive)
21,O=C1c2ccccc2C(=O)C1c1nccc2ccccc12,5.41 µM (inactive)
22,CCCCc1ccc(NC(=S)Nc2ccc(Cl)c(S(=O)(=O)N(C)C)c2)cc1,> 10 µM (inactive)
23,Cc1ccc(Nc2nc(N)nc(CN3CCN(c4ccccc4)CC3)n2)cc1Cl,8.47 µM
